From the supplement of paper PMC11208160

assay: recombinant UMI read abundance after kanamycin selection (control-corrected) (log10(CPM+1)); higher = more efficient recombination; extreme values may be limits of the assay; sequences stand for … in AGTGCAGAGAAAATCGGCCAGTTTTCTCTGCCTGCAGTCCGCATGCCGTGGGACCCCTTGGGTTCTAACCTGTTGCCTAGATTTATGCAGCGGACTGCCTTTCTCCCAAAGTGATAAACCGG…AGGTTGGTTTCACT; site = the 11-nt donor
In short: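 Each donor and donor-binding-loop pair was tracked by a 12-nt UMI on a plasmid carrying a promoterless kanamycin gene. With a second plasmid supplying a fixed target and T7-inducible IS621 bridge recombinase, the pool was plated in Escherichia coli on IPTG (0.07 mM) plus kanamycin or unselected. Sequencing of recombinant UMIs across the donor–target junction gave counts expressed as log10(CPM+1) after replicate averaging and control-derived scaling.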
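Note: IS621 bridge recombinase in Escherichia coli cells against a fixed T5 target plasmid.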

Sequence | recombinant UMI read abundance (log10)
AGACAGGCATGGACCGGTTTTCCCGGTAATCCGTATTTGCT (site AGAAAGGCTAG) | 0
AGACAGGCATGGACCGGTTTTCCCGGTAATCCGTATTTGCT (site AGACAGGCTAG) | 2.44
AGACAGGCATGGACCGGTTTTCCCGGTAATCCGTATTTGCT (site AGAGAGGCTAG) | 0
AGACAGGCATGGACCGGTTTTCCCGGTAATCCGTATTTGCT (site AGATAGGCTAG) | 0.555
AGACTTGCATGGACCGGTTTTCCCGGTAATCCGTATTTGCA (site AGACTTGCTTG) | 0
AGACTTTCATGGACCGGTTTTCCCGGTAATCCGTATTTGAC (site AGACTTTCTGT) | 0
AGACTTTCATGGACCGGTTTTCCCGGTAATCCGTATTTGAC (site AGCCTTTCTGT) | 0
AGACTTTCATGGACCGGTTTTCCCGGTAATCCGTATTTGAC (site AGGCTTTCTGT) | 0.503
AGACTTTCATGGACCGGTTTTCCCGGTAATCCGTATTTGAC (site AGTCTTTCTGT) | 0
AGAGCATCATGGACCGGTTTTCCCGGTAATCCGTATTTGAA (site AGAGCATCTTT) | 2.33
AGAGCCCCATGGACCGGTTTTCCCGGTAATCCGTATTTGCA (site AGAGCCCCTTG) | 1.71
AGAGGACCATGGACCGGTTTTCCCGGTAATCCGTATTTGGG (site AGAGGACCTCC) | 0.0119
AGAGGACCATGGACCGGTTTTCCCGGTAATCCGTATTTGGG (site CGAGGACCTCC) | 0.0261
AGAGGACCATGGACCGGTTTTCCCGGTAATCCGTATTTGGG (site GGAGGACCTCC) | 0.0142
AGAGGACCATGGACCGGTTTTCCCGGTAATCCGTATTTGGG (site TGAGGACCTCC) | 0.0116
AGAGTATCATGGACCGGTTTTCCCGGTAATCCGTATTTGTG (site AGAGTATCTCA) | 2.98
AGATAATCATGGACCGGTTTTCCCGGTAATCCGTATTTGTC (site AGATAATCTGA) | 2.16
AGATAGGCATGGACCGGTTTTCCCGGTAATCCGTATTTGCA (site AGATAGGCTTG) | 2.72
AGATCATCATGGACCGGTTTTCCCGGTAATCCGTATTTGTT (site AGATCATCTAA) | 0.929
AGATCATCATGGACCGGTTTTCCCGGTAATCCGTATTTGTT (site CGATCATCTAG) | 0
AGATCCGCATGGACCGGTTTTCCCGGTAATCCGTATTTGGT (site AGATCCGCTAC) | 0.811
AGATGGCCATGGACCGGTTTTCCCGGTAATCCGTATTTGTG (site AGATGGCCTCA) | 0.0259
AGATTATCATGGACCGGTTTTCCCGGTAATCCGTATTTGCA (site ACAGTATCTTG) | 2.54

Sequence | recombinant UMI read abundance (log10)
AGATTATCATGGACCGGTTTTCCCGGTAATCCGTATTTGCA (site AGATTATCTTG) | 2.9
AGATTCGCATGGACCGGTTTTCCCGGTAATCCGTATTTGGA (site AGATTCGCTTC) | 1.89
AGATTTACATGGACCGGTTTTCCCGGTAATCCGTATTTGGA (site AGATTTACTTC) | 0.959
AGCAAAACATGGACCGGTTTTCCCGGTAATCCGTATTTGCA (site AGCAAAACTTG) | 0.735
AGCAAGGCATGGACCGGTTTTCCCGGTAATCCGTATTTGCA (site AGCAAGGCTTG) | 2.5
AGCAAGGCATGGACCGGTTTTCCCGGTAATCCGTATTTGCA (site AGGAAGACTTG) | 0.0151
AGCACAGCATGGACCGGTTTTCCCGGTAATCCGTATTTGAC (site AGCACAGCTGT) | 2.8
AGCACAGCATGGACCGGTTTTCCCGGTAATCCGTATTTGGG (site AGCACAGCTCC) | 0.0126
AGCACAGCATGGACCGGTTTTCCCGGTAATCCGTATTTGGG (site AGCCCAGCTCC) | 0.00716
AGCACAGCATGGACCGGTTTTCCCGGTAATCCGTATTTGGG (site AGCGCAGCTCC) | 0.0219
AGCACAGCATGGACCGGTTTTCCCGGTAATCCGTATTTGGG (site AGCTCAGCTCC) | 0
AGCACCGCATGGACCGGTTTTCCCGGTAATCCGTATTTGGG (site AGCACCGCTCC) | 0.0364
AGCACGACATGGACCGGTTTTCCCGGTAATCCGTATTTGCA (site AGCACGACTTG) | 2.02
AGCACGACATGGACCGGTTTTCCCGGTAATCCGTATTTGCA (site AGGAAGACTTG) | 0
AGCCAAACATGGACCGGTTTTCCCGGTAATCCGTATTTGAA (site AGCCAAACTTT) | 1.32
AGCCCCTCATGGACCGGTTTTCCCGGTAATCCGTATTTGCA (site AGCCCCTCTTG) | 2.75
AGCCCTCCATGGACCGGTTTTCCCGGTAATCCGTATTTGTT (site AGCCCTCCTAA) | 0.00736
AGCCGAGCATGGACCGGTTTTCCCGGTAATCCGTATTTGTT (site AGCCAAGCTAA) | 0.398
AGCCGAGCATGGACCGGTTTTCCCGGTAATCCGTATTTGTT (site AGCCCAGCTAA) | 0.0229
AGCCGAGCATGGACCGGTTTTCCCGGTAATCCGTATTTGTT (site AGCCGAGCTAA) | 0.837
AGCCGAGCATGGACCGGTTTTCCCGGTAATCCGTATTTGTT (site AGCCTAGCTAA) | 0.00511
AGCCGTTCATGGACCGGTTTTCCCGGTAATCCGTATTTGAC (site AGCCATTCTGT) | 0
AGCCGTTCATGGACCGGTTTTCCCGGTAATCCGTATTTGAC (site AGCCCTTCTGT) | 0

Sequence | recombinant UMI read abundance (log10)
AGCCGTTCATGGACCGGTTTTCCCGGTAATCCGTATTTGAC (site AGCCGTTCTGT) | 1.9
AGCCGTTCATGGACCGGTTTTCCCGGTAATCCGTATTTGAC (site AGCCTTTCTGT) | 0
AGCCTAGCATGGACCGGTTTTCCCGGTAATCCGTATTTGCT (site AGCCTAGCTAA) | 0.0111
AGCCTAGCATGGACCGGTTTTCCCGGTAATCCGTATTTGCT (site AGCCTAGCTAC) | 0.0198
AGCCTAGCATGGACCGGTTTTCCCGGTAATCCGTATTTGCT (site AGCCTAGCTAG) | 0.00934
AGCCTAGCATGGACCGGTTTTCCCGGTAATCCGTATTTGCT (site AGCCTAGCTAT) | 0
AGCCTAGCATGGACCGGTTTTCCCGGTAATCCGTATTTGTG (site AGCCTAGCTAA) | 0.0164
AGCCTAGCATGGACCGGTTTTCCCGGTAATCCGTATTTGTG (site AGCCTAGCTCA) | 0.0603
AGCCTAGCATGGACCGGTTTTCCCGGTAATCCGTATTTGTG (site AGCCTAGCTGA) | 0
AGCCTAGCATGGACCGGTTTTCCCGGTAATCCGTATTTGTG (site AGCCTAGCTTA) | 0.00858
AGCCTATCATGGACCGGTTTTCCCGGTAATCCGTATTTGTT (site AGCCTAACTAA) | 0.0449
AGCCTATCATGGACCGGTTTTCCCGGTAATCCGTATTTGTT (site AGCCTACCTAA) | 0.00813
AGCCTATCATGGACCGGTTTTCCCGGTAATCCGTATTTGTT (site AGCCTAGCTAA) | 0.0191
AGCCTATCATGGACCGGTTTTCCCGGTAATCCGTATTTGTT (site AGCCTATCTAA) | 0
AGCCTCGCATGGACCGGTTTTCCCGGTAATCCGTATTTGTA (site AGCCTCGCTTA) | 0.57
AGCCTCGCATGGACCGGTTTTCCCGGTAATCCGTATTTGTT (site AGCCTAGCTAA) | 0.0107
AGCCTCGCATGGACCGGTTTTCCCGGTAATCCGTATTTGTT (site AGCCTCGCTAA) | 0.0635
AGCCTCGCATGGACCGGTTTTCCCGGTAATCCGTATTTGTT (site AGCCTGGCTAA) | 0.00929
AGCCTCGCATGGACCGGTTTTCCCGGTAATCCGTATTTGTT (site AGCCTTGCTAA) | 0.0107
AGCCTTGCATGGACCGGTTTTCCCGGTAATCCGTATTTGAC (site AGCCTTACTGT) | 0
AGCCTTGCATGGACCGGTTTTCCCGGTAATCCGTATTTGAC (site AGCCTTCCTGT) | 0
AGCCTTGCATGGACCGGTTTTCCCGGTAATCCGTATTTGAC (site AGCCTTGCTGT) | 1.36
